Results from PubChem BioAssay AID1963842 (Molecular Pharmacology Branch, DTP, NCI, 2024).

System: 677734-321-R-J1-PDC complex spheroid viability
Assay: Anticancer human tumor 677734-321-R-J1-PDC patient-derived soft tissue sarcoma cell line growth inhibition [POLQ]
Conditions: for IC50: curve of first compound; for viability, T/C: stronger effect = lower value; active = viability on the fitted dose curve at most 10% of control; inactive = the rest
In short: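 Three-cell-type spheroids modelling solid tumor plus stroma served as the readout system; POL inhibitors were tested individually and in combination, concentration ranges set by clinical Cmax where known.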

[1] = second compound 0.0316 µM, first compound 0.0316 µM
[2] = second compound 0.0316 µM, first compound 0.1 µM
[3] = second compound 0.0316 µM, first compound 0.316 µM
[4] = second compound 0.0316 µM, first compound 1 µM
[5] = second compound 0.0316 µM, first compound 3.16 µM
[6] = second compound 0.0316 µM, first compound 10 µM
[7] = second compound 0.1 µM, first compound 0.0316 µM
[8] = second compound 0.1 µM, first compound 0.1 µM
[9] = second compound 0.1 µM, first compound 0.316 µM
[10] = second compound 0.1 µM, first compound 1 µM
[11] = second compound 0.1 µM, first compound 3.16 µM
[12] = second compound 0.1 µM, first compound 10 µM
[13] = second compound 0.316 µM, first compound 0.0316 µM
[14] = second compound 0.316 µM, first compound 0.1 µM
[15] = second compound 0.316 µM, first compound 0.316 µM
[16] = second compound 0.316 µM, first compound 1 µM
[17] = second compound 0.316 µM, first compound 3.16 µM
[18] = second compound 0.316 µM, first compound 10 µM
[19] = second compound 1 µM, first compound 0.0316 µM
[20] = second compound 1 µM, first compound 0.1 µM
[21] = second compound 1 µM, first compound 0.316 µM
[22] = second compound 1 µM, first compound 1 µM
[23] = second compound 1 µM, first compound 3.16 µM
[24] = second compound 1 µM, first compound 10 µM
[25] = second compound 3.16 µM, first compound 0.0316 µM
[26] = second compound 3.16 µM, first compound 0.1 µM
[27] = second compound 3.16 µM, first compound 0.316 µM
[28] = second compound 3.16 µM, first compound 1 µM
[29] = second compound 3.16 µM, first compound 3.16 µM
[30] = second compound 3.16 µM, first compound 10 µM
[31] = second compound 10 µM, first compound 0.0316 µM
[32] = second compound 10 µM, first compound 0.1 µM
[33] = second compound 10 µM, first compound 0.316 µM
[34] = second compound 10 µM, first compound 1 µM
[35] = second compound 10 µM, first compound 3.16 µM
[36] = second compound 10 µM, first compound 10 µM
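Also: spheroids exposed to compounds for one week.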
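For viability, T/C in this document: 100% = vehicle DMSO treated spheroids.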

CC1COCCN1c1cc(-c2ccnn2C)c2ccnc(-c3ccn[nH]3)c2n1 (stereo unspecified) + Nc1ccc(C#CCN(C(=O)Cc2ncc(C(F)(F)F)cc2C(F)(F)F)c2ccc(F)cc2)nn1
59.5 nM: IC50 (second compound 0.316 µM)
87.7 nM: IC50 (second compound 0.0316 µM)
56.6 nM: IC50 (second compound 3.16 µM)
55.1 nM: IC50 (second compound 10 µM)
inactive: viability, T/C [1] 74.6% | viability, T/C [2] 46.8% | viability, T/C [3] 11.6% | viability, T/C [7] 92.1% | viability, T/C [8] 30.4% | viability, T/C [9] 10.6% | viability, T/C [13] 82.1% | viability, T/C [14] 23.7% | viability, T/C [19] 89.5% | viability, T/C [20] 19.4% | viability, T/C [25] 77% | viability, T/C [26] 21.9% | viability, T/C [27] 17.6% | viability, T/C [31] 82.8% | viability, T/C [32] 15% | viability, T/C [33] 9.59% | viability, T/C [34] 9.21% | viability, T/C [35] 10.5% | viability, T/C [36] 11.5%
69.4 nM: IC50 (second compound 0.1 µM)
60.5 nM: IC50 (second compound 1 µM)
active: viability, T/C [4] 8.34% | viability, T/C [5] 8.12% | viability, T/C [6] 8.31% | viability, T/C [10] 9.63% | viability, T/C [11] 8.82% | viability, T/C [12] 8.21% | viability, T/C [15] 8.36% | viability, T/C [16] 8.25% | viability, T/C [17] 7.35% | viability, T/C [18] 8.3% | viability, T/C [21] 9.09% | viability, T/C [22] 10.1% | viability, T/C [23] 7.46% | viability, T/C [24] 7.2% | viability, T/C [28] 8.48% | viability, T/C [29] 7.93% | viability, T/C [30] 7.03%

CC1COCCN1c1cc(C2(S(C)(=N)=O)CC2)nc(-c2ccnc3[nH]ccc23)n1 (stereo unspecified) + Nc1ccc(C#CCN(C(=O)Cc2ncc(C(F)(F)F)cc2C(F)(F)F)c2ccc(F)cc2)nn1
1370 nM: IC50 (second compound 0.0316 µM)
1230 nM: IC50 (second compound 0.1 µM)
1030 nM: IC50 (second compound 1 µM)
active: viability, T/C [6] 9.33% | viability, T/C [12] 7.36% | viability, T/C [24] 8.77% | viability, T/C [36] 6.41%
inactive: viability, T/C [1] 98.3% | viability, T/C [2] 91.7% | viability, T/C [3] 75% | viability, T/C [4] 65.3% | viability, T/C [5] 23.5% | viability, T/C [7] 96.2% | viability, T/C [8] 118% | viability, T/C [9] 73.6% | viability, T/C [10] 57.1% | viability, T/C [11] 28.1% | viability, T/C [13] 109% | viability, T/C [14] 105% | viability, T/C [15] 105% | viability, T/C [16] 42.7% | viability, T/C [17] 27.1% | viability, T/C [18] 9.47% | viability, T/C [19] 118% | viability, T/C [20] 94.5% | viability, T/C [21] 72.9% | viability, T/C [22] 59.2% | viability, T/C [23] 19.1% | viability, T/C [25] 111% | viability, T/C [26] 87.1% | viability, T/C [27] 96.9% | viability, T/C [28] 43.3% | viability, T/C [29] 21.7% | viability, T/C [30] 8.55% | viability, T/C [31] 105% | viability, T/C [32] 103% | viability, T/C [33] 72.6% | viability, T/C [34] 35.2% | viability, T/C [35] 19.3%
656 nM: IC50 (second compound 10 µM)
884 nM: IC50 (second compound 3.16 µM)
879 nM: IC50 (second compound 0.316 µM)

COc1ccc([C@@H](O)c2cc(-c3ncnc4cc(N5CCOCC5)ccc34)c(F)cc2Cl)nn1 + Nc1ccc(C#CCN(C(=O)Cc2ncc(C(F)(F)F)cc2C(F)(F)F)c2ccc(F)cc2)nn1
inactive: viability, T/C [1] 89.5% | viability, T/C [2] 96.2% | viability, T/C [3] 76.8% | viability, T/C [4] 88.4% | viability, T/C [5] 72.5% | viability, T/C [6] 41.7% | viability, T/C [7] 90.2% | viability, T/C [8] 106% | viability, T/C [9] 96.2% | viability, T/C [10] 90.8% | viability, T/C [11] 67.4% | viability, T/C [12] 47.8% | viability, T/C [13] 105% | viability, T/C [14] 93.1% | viability, T/C [15] 80.9% | viability, T/C [16] 95.4% | viability, T/C [17] 71.5% | viability, T/C [18] 47.6% | viability, T/C [19] 108% | viability, T/C [20] 93.9% | viability, T/C [21] 94% | viability, T/C [22] 90.4% | viability, T/C [23] 73.8% | viability, T/C [24] 43.2% | viability, T/C [25] 103% | viability, T/C [26] 92.6% | viability, T/C [27] 82.8% | viability, T/C [28] 75.5% | viability, T/C [29] 61.1% | viability, T/C [30] 43.4% | viability, T/C [31] 102% | viability, T/C [32] 99.7% | viability, T/C [33] 77.7% | viability, T/C [34] 73.7% | viability, T/C [35] 72.9% | viability, T/C [36] 45.8%
6660 nM: IC50 (second compound 3.16 µM)
9170 nM: IC50 (second compound 0.316 µM)
> 10000 nM: IC50 (second compound 10 µM)
7370 nM: IC50 (second compound 0.0316 µM)
8810 nM: IC50 (second compound 0.1 µM)
7890 nM: IC50 (second compound 1 µM)
